Results: ChEMBL document CHEMBL1909046, “DrugMatrix in vitro pharmacology data”
pIC50: −log10 of the molar value.

How the values were obtained:
[1] = DRUGMATRIX: Glutamate, AMPA radioligand binding (ligand: [3H] AMPA); assay type: cell membranes, Rattus norvegicus, Wistar, Cerebral cortex, Membrane; conditions: Not Active = under 50% inhibition at 10 µM
[2] = target: Cannabinoid receptor 1 (Homo sapiens, UniProt P21554); assay type: cell membranes, Membrane; conditions: chem-1; further: in other assays of this panel Not Active means under 50% inhibition at 10 µM
[3] = target: Insulin receptor (Rattus norvegicus, UniProt P15127); assay type: cell membranes, Wistar, Liver, Membrane; further: in other assays of this panel Not Active means under 50% inhibition at 10 µM
[4] = target: Tyrosine-protein kinase Lck (Homo sapiens, UniProt P06239); test: DRUGMATRIX: Protein Tyrosine Kinase, LCK enzyme inhibition (substrate: Poly(Glu:Tyr)); assay type: cell-based, Insect cells; conditions: Not Active = under 50% inhibition at 10 µM; for IC50: insect cells
[5] = target: T1, Thromboxane-A synthase (Homo sapiens, UniProt P24557); test: biochemical; assay type: tissue-based, Platelet; conditions: for IC50: platelet;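 on all read-outs here: enzyme inhibition assay with PGH2 supplied as substrate; in other assays of this panel Not Active means under 50% inhibition at 10 µM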
T1 sequence (P24557 whole entry): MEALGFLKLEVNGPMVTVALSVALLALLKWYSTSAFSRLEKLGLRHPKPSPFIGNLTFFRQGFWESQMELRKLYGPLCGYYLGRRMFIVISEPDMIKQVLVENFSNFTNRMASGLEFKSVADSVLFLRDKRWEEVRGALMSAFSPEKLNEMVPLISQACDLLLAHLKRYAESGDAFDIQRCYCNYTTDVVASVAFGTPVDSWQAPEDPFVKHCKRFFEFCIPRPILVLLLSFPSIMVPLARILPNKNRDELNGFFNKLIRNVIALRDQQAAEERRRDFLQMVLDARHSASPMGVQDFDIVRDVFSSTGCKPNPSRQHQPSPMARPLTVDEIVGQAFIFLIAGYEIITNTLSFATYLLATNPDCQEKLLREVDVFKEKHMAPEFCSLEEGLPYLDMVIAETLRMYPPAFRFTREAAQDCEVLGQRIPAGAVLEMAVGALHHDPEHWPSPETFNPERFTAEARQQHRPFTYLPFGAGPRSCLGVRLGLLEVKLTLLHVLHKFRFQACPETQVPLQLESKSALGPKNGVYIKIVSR

[6] = DRUGMATRIX: Glutamate, NMDA, Agonism radioligand binding (ligand: [3H] CGP-39653); assay type: cell membranes, Rattus norvegicus, Wistar, Cerebral cortex, Membrane; conditions: Not Active = under 50% inhibition at 10 µM
[7] = target: T2, C-C chemokine receptor type 4 (Homo sapiens, UniProt P51679); assay type: cell membranes, Membrane; conditions: chem-1; further: in other assays of this panel Not Active means under 50% inhibition at 10 µM
T2 sequence (P51679 whole entry): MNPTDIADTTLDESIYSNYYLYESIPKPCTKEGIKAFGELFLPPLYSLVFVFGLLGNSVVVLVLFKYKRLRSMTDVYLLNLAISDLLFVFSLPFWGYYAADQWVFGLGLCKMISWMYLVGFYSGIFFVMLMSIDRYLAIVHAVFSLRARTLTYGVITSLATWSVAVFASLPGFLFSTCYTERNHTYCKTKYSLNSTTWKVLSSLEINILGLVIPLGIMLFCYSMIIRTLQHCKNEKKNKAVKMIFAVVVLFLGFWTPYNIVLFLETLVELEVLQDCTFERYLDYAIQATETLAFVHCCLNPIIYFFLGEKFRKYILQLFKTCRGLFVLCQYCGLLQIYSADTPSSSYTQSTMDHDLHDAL

[8] = target: C-C chemokine receptor type 2 (Homo sapiens, UniProt P41597); assay type: cell membranes, CHO-K1, Membrane; conditions: cho-k1; further: in other assays of this panel Not Active means under 50% inhibition at 10 µM
[9] = target: Melanocortin receptor 4 (Homo sapiens, UniProt P32245); assay type: cell membranes, Membrane; conditions: hek293; further: in other assays of this panel Not Active means under 50% inhibition at 10 µM
[10] = target: T3, C-X-C chemokine receptor type 2 (Homo sapiens, UniProt P25025); assay type: cell membranes, Membrane; conditions: cho-k1; further: in other assays of this panel Not Active means under 50% inhibition at 10 µM
T3 sequence (P25025 whole entry): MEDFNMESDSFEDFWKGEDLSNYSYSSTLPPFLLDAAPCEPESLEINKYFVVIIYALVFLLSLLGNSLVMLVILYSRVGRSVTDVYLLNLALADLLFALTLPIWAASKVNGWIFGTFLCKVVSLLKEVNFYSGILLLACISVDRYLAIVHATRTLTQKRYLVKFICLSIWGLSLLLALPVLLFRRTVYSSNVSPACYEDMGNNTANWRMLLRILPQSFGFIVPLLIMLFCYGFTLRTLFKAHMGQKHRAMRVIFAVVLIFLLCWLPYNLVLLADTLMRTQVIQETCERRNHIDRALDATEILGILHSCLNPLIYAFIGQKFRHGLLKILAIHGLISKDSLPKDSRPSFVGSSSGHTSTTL

[11] = target: 5-hydroxytryptamine receptor 6 (Homo sapiens, UniProt P50406); assay type: cell membranes, HeLa, Membrane; conditions: hela; further: in other assays of this panel Not Active means under 50% inhibition at 10 µM
[12] = target: Acetylcholinesterase (Homo sapiens, UniProt P22303); test: DRUGMATRIX: Acetylcholinesterase enzyme inhibition (substrate: acetylthiocholine); assay type: cell-based, HEK293; conditions: hek293; Not Active = under 50% inhibition at 10 µM
[13] = target: Epidermal growth factor receptor (Homo sapiens, UniProt P00533); test: DRUGMATRIX: Protein Tyrosine Kinase, EGF Receptor enzyme inhibition (substrate: Poly(Glu:Tyr)); assay type: cell-based, Insect cells; conditions: Not Active = under 50% inhibition at 10 µM; for IC50: insect cells
[14] = target: Delta-type opioid receptor (Homo sapiens, UniProt P41143); assay type: cell membranes, HEK293, Membrane; conditions: hek293; further: in other assays of this panel Not Active means under 50% inhibition at 10 µM
[15] = target: T4, Muscarinic acetylcholine receptor M2 (Homo sapiens, UniProt P08172); assay type: cell membranes, CHO-K1, Membrane; conditions: cho-k1; further: in other assays of this panel Not Active means under 50% inhibition at 10 µM
T4 sequence (P08172 whole entry): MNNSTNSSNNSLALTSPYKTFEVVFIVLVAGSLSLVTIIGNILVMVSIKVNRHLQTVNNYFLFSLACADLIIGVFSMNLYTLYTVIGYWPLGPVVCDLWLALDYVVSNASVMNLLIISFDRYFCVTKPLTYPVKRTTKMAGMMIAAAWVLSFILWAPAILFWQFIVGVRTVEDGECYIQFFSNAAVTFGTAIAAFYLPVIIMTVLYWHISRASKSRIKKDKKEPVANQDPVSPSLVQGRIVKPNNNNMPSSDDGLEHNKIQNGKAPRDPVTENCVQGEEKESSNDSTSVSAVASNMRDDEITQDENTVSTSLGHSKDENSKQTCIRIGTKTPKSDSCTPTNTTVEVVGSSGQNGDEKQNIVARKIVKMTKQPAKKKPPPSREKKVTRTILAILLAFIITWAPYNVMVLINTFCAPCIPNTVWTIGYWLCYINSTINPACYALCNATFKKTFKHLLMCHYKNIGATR

[16] = target: Vasopressin V1a receptor (Homo sapiens, UniProt P37288); assay type: cell membranes, Membrane; conditions: hek293; further: in other assays of this panel Not Active means under 50% inhibition at 10 µM
[17] = target: Protein phosphatase 3 catalytic subunit alpha (Homo sapiens, UniProt Q08209); design: species or system Escherichia coli
[18] = DRUGMATRIX: Nicotinic Acetylcholine radioligand binding (ligand: [125I] Epibatidine); assay type: cell membranes, Membrane; conditions: imr-32; Not Active = under 50% inhibition at 10 µM
[19] = target: 5-hydroxytryptamine receptor 2B (Homo sapiens, UniProt P41595); assay type: cell membranes, CHO-K1, Membrane; conditions: cho-k1; further: in other assays of this panel Not Active means under 50% inhibition at 10 µM

Sequence of 5-hydroxytryptamine receptor 6 (P50406 whole entry): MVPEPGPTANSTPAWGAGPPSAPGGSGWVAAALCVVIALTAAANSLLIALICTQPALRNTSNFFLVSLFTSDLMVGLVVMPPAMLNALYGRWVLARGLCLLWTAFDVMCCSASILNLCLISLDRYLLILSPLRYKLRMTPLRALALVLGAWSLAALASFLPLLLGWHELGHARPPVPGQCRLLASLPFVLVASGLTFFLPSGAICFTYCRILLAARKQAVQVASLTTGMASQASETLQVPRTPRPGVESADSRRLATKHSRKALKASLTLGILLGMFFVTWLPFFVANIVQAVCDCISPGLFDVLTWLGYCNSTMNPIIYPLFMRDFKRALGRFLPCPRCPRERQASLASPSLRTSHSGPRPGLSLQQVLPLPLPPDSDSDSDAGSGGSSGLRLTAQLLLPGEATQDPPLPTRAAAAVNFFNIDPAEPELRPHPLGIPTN
Sequence of Epidermal growth factor receptor (P00533 whole entry): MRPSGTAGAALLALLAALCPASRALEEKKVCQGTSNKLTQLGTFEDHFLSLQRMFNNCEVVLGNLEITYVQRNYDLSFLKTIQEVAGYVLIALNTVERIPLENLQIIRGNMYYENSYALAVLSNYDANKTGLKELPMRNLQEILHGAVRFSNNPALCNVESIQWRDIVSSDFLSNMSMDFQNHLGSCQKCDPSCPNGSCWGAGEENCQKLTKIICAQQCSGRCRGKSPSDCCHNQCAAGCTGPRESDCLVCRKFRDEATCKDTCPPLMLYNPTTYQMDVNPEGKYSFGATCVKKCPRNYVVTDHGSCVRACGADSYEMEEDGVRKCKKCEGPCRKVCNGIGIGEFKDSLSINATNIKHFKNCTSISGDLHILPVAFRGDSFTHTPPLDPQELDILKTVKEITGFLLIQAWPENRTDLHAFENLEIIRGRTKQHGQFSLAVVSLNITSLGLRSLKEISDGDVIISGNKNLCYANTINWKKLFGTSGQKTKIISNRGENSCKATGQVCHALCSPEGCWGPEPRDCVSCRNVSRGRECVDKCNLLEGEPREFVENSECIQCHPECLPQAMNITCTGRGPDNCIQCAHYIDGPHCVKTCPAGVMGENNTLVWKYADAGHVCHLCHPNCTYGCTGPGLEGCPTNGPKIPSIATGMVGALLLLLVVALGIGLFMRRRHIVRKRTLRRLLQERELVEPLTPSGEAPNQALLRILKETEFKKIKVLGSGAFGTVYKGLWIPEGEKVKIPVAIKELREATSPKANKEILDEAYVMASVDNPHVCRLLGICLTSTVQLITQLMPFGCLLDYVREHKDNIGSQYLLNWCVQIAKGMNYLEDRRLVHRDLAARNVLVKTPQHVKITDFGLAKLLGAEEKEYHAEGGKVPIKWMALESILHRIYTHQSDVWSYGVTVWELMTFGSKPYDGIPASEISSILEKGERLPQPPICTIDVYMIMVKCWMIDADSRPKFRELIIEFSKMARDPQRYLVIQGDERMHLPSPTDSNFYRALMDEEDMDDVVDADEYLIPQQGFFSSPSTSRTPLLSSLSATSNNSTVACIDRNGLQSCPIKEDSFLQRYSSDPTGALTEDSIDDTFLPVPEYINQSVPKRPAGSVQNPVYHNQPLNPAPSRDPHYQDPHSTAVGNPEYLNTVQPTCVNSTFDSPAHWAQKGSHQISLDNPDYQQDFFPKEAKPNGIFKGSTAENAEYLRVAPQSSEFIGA
Sequence of Insulin receptor (P15127 27-759 limits assumed): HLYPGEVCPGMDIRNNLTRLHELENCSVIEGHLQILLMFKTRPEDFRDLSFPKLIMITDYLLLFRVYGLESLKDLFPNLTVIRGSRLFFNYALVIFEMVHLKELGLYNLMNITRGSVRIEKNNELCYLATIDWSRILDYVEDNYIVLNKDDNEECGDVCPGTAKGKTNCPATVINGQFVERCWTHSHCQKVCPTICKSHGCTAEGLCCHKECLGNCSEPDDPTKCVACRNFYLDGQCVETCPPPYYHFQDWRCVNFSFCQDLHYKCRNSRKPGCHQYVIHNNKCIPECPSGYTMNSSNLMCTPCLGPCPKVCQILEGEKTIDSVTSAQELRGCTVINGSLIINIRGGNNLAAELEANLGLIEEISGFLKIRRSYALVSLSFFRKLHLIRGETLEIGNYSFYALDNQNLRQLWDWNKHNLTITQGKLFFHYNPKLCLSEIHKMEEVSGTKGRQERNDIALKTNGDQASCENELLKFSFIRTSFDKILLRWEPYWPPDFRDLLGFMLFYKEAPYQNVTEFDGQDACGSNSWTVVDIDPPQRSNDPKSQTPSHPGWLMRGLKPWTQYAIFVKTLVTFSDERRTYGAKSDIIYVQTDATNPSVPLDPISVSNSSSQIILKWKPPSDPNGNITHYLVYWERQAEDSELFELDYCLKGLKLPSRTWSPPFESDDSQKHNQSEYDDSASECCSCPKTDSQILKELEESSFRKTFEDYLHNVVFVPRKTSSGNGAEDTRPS
Sequence of Insulin receptor (P15127 764-1383 limits assumed): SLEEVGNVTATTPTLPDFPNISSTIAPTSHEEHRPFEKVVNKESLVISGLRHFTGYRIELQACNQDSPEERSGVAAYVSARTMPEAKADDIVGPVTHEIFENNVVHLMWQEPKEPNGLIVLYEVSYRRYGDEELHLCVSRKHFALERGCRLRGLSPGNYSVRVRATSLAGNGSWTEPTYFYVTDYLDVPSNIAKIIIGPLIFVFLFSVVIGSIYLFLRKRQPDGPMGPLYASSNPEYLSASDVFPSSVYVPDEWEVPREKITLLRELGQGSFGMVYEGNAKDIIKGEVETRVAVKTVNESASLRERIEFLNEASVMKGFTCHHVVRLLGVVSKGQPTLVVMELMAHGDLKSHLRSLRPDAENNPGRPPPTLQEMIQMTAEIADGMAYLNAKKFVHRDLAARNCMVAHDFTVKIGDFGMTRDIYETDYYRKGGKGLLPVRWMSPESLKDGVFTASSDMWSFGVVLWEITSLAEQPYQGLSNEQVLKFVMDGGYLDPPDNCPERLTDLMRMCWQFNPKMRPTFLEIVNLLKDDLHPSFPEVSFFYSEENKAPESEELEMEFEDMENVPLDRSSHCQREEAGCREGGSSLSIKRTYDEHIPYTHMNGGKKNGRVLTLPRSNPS
Sequence of C-C chemokine receptor type 2 (P41597 whole entry): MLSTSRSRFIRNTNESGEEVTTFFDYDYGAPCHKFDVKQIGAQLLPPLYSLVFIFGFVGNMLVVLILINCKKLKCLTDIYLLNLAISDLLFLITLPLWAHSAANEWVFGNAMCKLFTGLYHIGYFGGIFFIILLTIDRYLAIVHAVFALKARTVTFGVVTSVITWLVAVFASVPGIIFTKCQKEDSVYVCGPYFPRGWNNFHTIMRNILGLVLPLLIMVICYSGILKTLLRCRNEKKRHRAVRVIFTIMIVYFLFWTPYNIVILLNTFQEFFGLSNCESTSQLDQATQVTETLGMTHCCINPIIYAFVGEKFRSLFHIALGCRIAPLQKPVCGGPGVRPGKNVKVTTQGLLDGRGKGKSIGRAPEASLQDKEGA
Sequence of Acetylcholinesterase (P22303 whole entry): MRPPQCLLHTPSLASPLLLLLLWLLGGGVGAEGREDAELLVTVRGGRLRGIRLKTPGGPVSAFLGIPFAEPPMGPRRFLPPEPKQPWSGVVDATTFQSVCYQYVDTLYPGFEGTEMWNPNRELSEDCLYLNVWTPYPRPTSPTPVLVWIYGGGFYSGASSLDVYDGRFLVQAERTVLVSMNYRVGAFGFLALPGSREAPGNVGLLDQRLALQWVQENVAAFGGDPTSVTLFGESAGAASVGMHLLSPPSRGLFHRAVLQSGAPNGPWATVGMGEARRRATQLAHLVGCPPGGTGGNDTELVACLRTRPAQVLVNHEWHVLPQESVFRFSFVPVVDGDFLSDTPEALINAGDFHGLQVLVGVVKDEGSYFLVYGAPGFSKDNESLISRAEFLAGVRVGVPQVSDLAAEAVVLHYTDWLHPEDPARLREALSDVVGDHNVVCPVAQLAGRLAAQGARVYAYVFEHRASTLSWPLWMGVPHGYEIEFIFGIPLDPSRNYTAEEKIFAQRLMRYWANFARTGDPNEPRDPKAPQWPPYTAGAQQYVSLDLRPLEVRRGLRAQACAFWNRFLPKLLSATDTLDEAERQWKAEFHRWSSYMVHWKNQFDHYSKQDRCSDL
Sequence of Delta-type opioid receptor (P41143 whole entry): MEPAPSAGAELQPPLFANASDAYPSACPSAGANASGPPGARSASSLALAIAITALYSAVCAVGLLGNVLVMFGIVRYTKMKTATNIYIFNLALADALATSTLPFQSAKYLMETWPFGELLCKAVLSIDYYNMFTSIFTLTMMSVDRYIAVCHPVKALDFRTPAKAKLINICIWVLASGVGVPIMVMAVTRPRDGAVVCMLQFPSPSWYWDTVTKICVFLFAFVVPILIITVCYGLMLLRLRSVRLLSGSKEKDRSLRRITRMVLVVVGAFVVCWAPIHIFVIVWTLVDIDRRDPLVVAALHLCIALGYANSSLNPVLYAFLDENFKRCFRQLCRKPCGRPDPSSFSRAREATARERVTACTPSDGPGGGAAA
Sequence of Cannabinoid receptor 1 (P21554 whole entry): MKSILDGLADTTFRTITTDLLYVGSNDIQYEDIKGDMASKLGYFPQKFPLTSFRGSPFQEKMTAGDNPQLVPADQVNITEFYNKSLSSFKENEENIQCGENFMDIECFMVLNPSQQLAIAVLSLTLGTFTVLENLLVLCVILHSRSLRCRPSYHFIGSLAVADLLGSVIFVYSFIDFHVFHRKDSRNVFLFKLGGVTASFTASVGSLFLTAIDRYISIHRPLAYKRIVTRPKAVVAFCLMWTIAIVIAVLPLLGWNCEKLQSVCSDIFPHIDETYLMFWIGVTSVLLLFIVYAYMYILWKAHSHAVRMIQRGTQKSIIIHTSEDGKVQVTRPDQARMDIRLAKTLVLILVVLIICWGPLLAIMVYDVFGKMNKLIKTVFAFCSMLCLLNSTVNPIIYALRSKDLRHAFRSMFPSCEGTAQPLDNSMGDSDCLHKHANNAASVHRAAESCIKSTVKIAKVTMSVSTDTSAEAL

SMILES	IC50 [1]	Ki [1]	IC50 [2]	IC50 [3]	IC50 [4]	IC50 [5]	IC50 [6]	Ki [6]	IC50 [7]	IC50 [8]	IC50 [9]	IC50 [10]	IC50 [11]	IC50 [12]	IC50 [13]	IC50 [14]	IC50 [15]	IC50 [16]	IC50 [17]	IC50 [19]	other results
CCOC(=O)[C@H](CCc1ccccc1)N[C@@H](C)C(=O)N1[C@H](C(=O)O)C[C@@H]2CCC[C@@H]21	Not Active	Not Active	Not Active	Not Active	Not Active	Not Active	Not Active	Not Active	Not Active	Not Active	Not Active	Not Active	Not Active	Not Active	Not Active	Not Active	Not Active	Not Active	Not Active	Not Active	IC50 [18]: Not Active; Ki [18]: Not Active
CC(C)(C)NC(=O)[C@@H]1CN(Cc2cccnc2)CCN1C[C@@H](O)C[C@@H](Cc1ccccc1)C(=O)N[C@H]1c2ccccc2C[C@H]1O.O	Not Active	Not Active	Not Active	Not Active	Not Active		Not Active	Not Active	Not Active	Not Active	Not Active	Not Active	Not Active	Not Active	Not Active	Not Active	Not Active	Not Active	Not Active	Not Active	pIC50 ([5]; read-out: IC50): 5.73; IC50 [18]: Not Active; Ki [18]: Not Active
CC1(C)[C@H]2CC[C@]1(C)C(=O)C2 [(-)-CAMPHOR]	Not Active	Not Active	Not Active	Not Active	Not Active	Not Active	Not Active	Not Active	Not Active	Not Active	Not Active	Not Active	Not Active	Not Active	Not Active	Not Active	Not Active	Not Active	Not Active	Not Active	IC50 [18]: Not Active; Ki [18]: Not Active
CC(C)(C)NCC(O)c1ccc(O)c(CO)c1 (stereo not drawn) [ALBUTEROL]	Not Active	Not Active	Not Active	Not Active	Not Active	Not Active	Not Active	Not Active	Not Active	Not Active	Not Active	Not Active	Not Active	Not Active	Not Active	Not Active	Not Active	Not Active	Not Active	Not Active	IC50 [18]: Not Active; Ki [18]: Not Active
Oc1c(I)cc(I)c2cccnc12 [IODOQUINOL]	Not Active	Not Active	Not Active	Not Active		Not Active	Not Active	Not Active	Not Active	Not Active	Not Active	Not Active	Not Active	Not Active		Not Active	Not Active	Not Active	Not Active	Not Active	pIC50 ([4]; read-out: IC50): 5.61; pIC50 ([13]; read-out: IC50): 5.72; IC50 [18]: Not Active; Ki [18]: Not Active
NNC(=O)c1ccncc1 [ISONIAZID]	Not Active	Not Active	Not Active	Not Active	Not Active	Not Active	Not Active	Not Active	Not Active	Not Active	Not Active	Not Active	Not Active	Not Active	Not Active	Not Active	Not Active	Not Active	Not Active	Not Active	IC50 [18]: Not Active; Ki [18]: Not Active
COc1cccc(C2(O)CCCCC2CN(C)C)c1 (stereo not drawn) [TRAMADOL]			Not Active	Not Active	Not Active	Not Active			Not Active	Not Active	Not Active	Not Active	Not Active	Not Active	Not Active	Not Active	Not Active	Not Active	Not Active	Not Active	
